Measurements published in publication PMC7531004, “Discovery of gramicidin A analogues with altered activities by multidimensional screening of a one-bead-one-compound library” (Nature Communications, 2020).
Where a SMILES comes first, the peptide text is derived from it. [ ]: non-standard residue; d: D form. The star is where a group is joined. NHCH2CH2OH = OCCN*; For = O=C*

How the values were obtained:
[1] = test system: P388 mouse leukemia cells; conditions: 92 h
Method in brief: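 First, library peptide stocks are diluted 250-fold in RPMI1640 with 10% heat-inactivated FBS. Next, they are mixed with P388 cells to give 1 × 10^4 cells/mL and incubated 92 h at 37 °C, 5% CO2. Finally, viability (%) is scored by WST-1 absorbance at 415 nm.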

[2] = test system: Streptococcus pyogenes SSI-9; assay: Antibacterial activity assay of bead-derived peptides (three concentrations); assay type: cell-based; design: key: +++: inhibition by the 640-fold diluted peptide solution; ++: inhibition by the 160-fold diluted solution; +: inhibition by the 40-fold diluted solution; -: no inhibition; conditions: S. pyogenes, bead-derived peptide solution, three concentrations
Method in brief: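 Bead-derived library peptide stocks in DMSO were tested undiluted and after 4- and 16-fold DMSO dilution against S. pyogenes SSI-9 (2 × 10^5 CFU/well) in cation-adjusted Mueller Hinton Broth with 5% laked horse blood. After 18 h at 37 °C, wells were scored for precipitation of grown cells.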

[3] = H+/Na+ transport assay of bead-derived peptides (one-point); assay type: biochemical; design: key: relative activity; mean of two control wells = 1.00; conditions: bead-derived peptide solution, EYPC/EYPG LUVs;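 also: relative to parent gramicidin A activity set to 1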
Method in brief: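 Values are normalized fluorescence, with Triton X-100 defining 100% and untreated LUVs 0%, and the two control wells averaging 1.00. Vesicles carried 1.0 mM pyranine and included egg yolk phosphatidylglycerol. Peptides were incubated with them 30 min at room temperature.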

Compound	cell viability/% [1]	antibacterial activity [2]	H+/Na+ transport activity normalized against the value of 1 (1.00) [3]
CNC(=O)C[C@@H](NC(=O)[C@H](Cc1c[nH]c2ccccc12)NC(=O)[C@@H](CC(C)C)NC(=O)[C@H](Cc1c[nH]c2ccccc12)NC(=O)[C@H](NC(=O)[C@H](Cc1c[nH]c2ccccc12)NC(=O)[C@H](NC(=O)[C@@H](NC(=O)[C@@H](CC(C)C)NC(=O)[C@H](C)NC(=O)[C@@H](CC(C)C)NC(=O)[C@H](C)NC(=O)CNC(=O)[C@@H](NC=O)C(C)C)C(C)C)C(C)C)C(C)C)C(=O)N[C@@H](Cc1c[nH]c2ccccc12)C(=O)NCCO [compound 10678] (For-VGA[dL]A[dL]V[dV]W[dV]W[dL]W[dD](NHMe)W-NHCH2CH2OH)	76.0%	-	1.10
CNC(=O)C[C@@H](NC(=O)[C@H](Cc1c[nH]c2ccccc12)NC(=O)[C@H](NC(=O)[C@H](Cc1c[nH]c2ccccc12)NC(=O)[C@H](NC(=O)[C@H](Cc1c[nH]c2ccccc12)NC(=O)[C@@H](CC(C)C)NC(=O)[C@@H](NC(=O)[C@H](NC(=O)[C@H](C)NC(=O)[C@@H](CC(C)C)NC(=O)[C@H](C)NC(=O)CNC(=O)[C@@H](NC=O)C(C)C)C(C)C)C(C)C)C(C)C)C(C)C)C(=O)N[C@@H](Cc1c[nH]c2ccccc12)C(=O)NCCO [compound 4808] (For-VGA[dL]A[dV]V[dL]W[dV]W[dV]W[dD](NHMe)W-NHCH2CH2OH)	100.0%	-	1.02
CC(C)C[C@@H](NC(=O)[C@H](Cc1c[nH]c2ccccc12)NC(=O)[C@@H](CC(C)C)NC(=O)[C@@H](NC(=O)[C@H](NC(=O)[C@H](C)NC(=O)[C@H](NC(=O)[C@H](C)NC(=O)CNC(=O)[C@@H](NC=O)C(C)C)[C@H](C)O)C(C)C)C(C)C)C(=O)N[C@@H](Cc1c[nH]c2ccccc12)C(=O)N[C@@H](C(=O)N[C@@H](Cc1c[nH]c2ccccc12)C(=O)N[C@@H](C(=O)N[C@@H](Cc1c[nH]c2ccccc12)C(=O)NCCO)C(C)C)C(C)C [compound 11772] (For-VGA[dT]A[dV]V[dL]W[dL]W[dV]W[dV]W-NHCH2CH2OH)	100.0%	-	1.04
CC(C)C[C@@H](NC(=O)[C@H](C)NC(=O)[C@H](NC(=O)[C@H](C)NC(=O)CNC(=O)[C@@H](NC=O)C(C)C)C(C)C)C(=O)N[C@H](C(=O)N[C@@H](C(=O)N[C@@H](Cc1c[nH]c2ccccc12)C(=O)N[C@@H](C(=O)N[C@@H](Cc1c[nH]c2ccccc12)C(=O)N[C@H](CC(C)C)C(=O)N[C@@H](Cc1c[nH]c2ccccc12)C(=O)N[C@@H](C(=O)N[C@@H](Cc1c[nH]c2ccccc12)C(=O)NCCO)[C@H](C)O)C(C)C)C(C)C)C(C)C [compound 7393] (For-VGA[dV]A[dL]V[dV]W[dV]W[dL]W[dT]W-NHCH2CH2OH)	100.0%	-	1.07
CC(C)C[C@@H](NC(=O)[C@H](C)NC(=O)CNC(=O)[C@@H](NC=O)C(C)C)C(=O)N[C@@H](C)C(=O)N[C@@H](C(=O)N[C@H](C(=O)N[C@@H](C(=O)N[C@@H](Cc1c[nH]c2ccccc12)C(=O)N[C@@H](C(=O)N[C@@H](Cc1c[nH]c2ccccc12)C(=O)N[C@H](CC(C)C)C(=O)N[C@@H](Cc1c[nH]c2ccccc12)C(=O)N[C@H](CC(C)C)C(=O)N[C@@H](Cc1c[nH]c2ccccc12)C(=O)NCCO)C(C)C)[C@H](C)O)C(C)C)C(C)C [compound 6225] (For-VGA[dL]A[dV]V[dT]W[dV]W[dL]W[dL]W-NHCH2CH2OH)	80.8%	-	1.10
CC(C)C[C@@H](NC(=O)[C@H](Cc1c[nH]c2ccccc12)NC(=O)[C@H](NC(=O)[C@H](Cc1c[nH]c2ccccc12)NC(=O)[C@H](NC(=O)[C@H](Cc1c[nH]c2ccccc12)NC(=O)[C@H](NC(=O)[C@@H](NC(=O)[C@H](NC(=O)[C@H](C)NC(=O)[C@H](NC(=O)[C@H](C)NC(=O)CNC(=O)[C@@H](NC=O)C(C)C)C(C)C)C(C)C)C(C)C)C(C)C)C(C)C)C(C)C)C(=O)N[C@@H](Cc1c[nH]c2ccccc12)C(=O)NCCO [compound 1004] (For-VGA[dV]A[dV]V[dV]W[dV]W[dV]W[dL]W-NHCH2CH2OH)	60.4%	+	1.04
CC(C)C[C@@H](NC(=O)[C@H](C)NC(=O)CNC(=O)[C@@H](NC=O)C(C)C)C(=O)N[C@@H](C)C(=O)N[C@@H](C(=O)N[C@H](C(=O)N[C@@H](C(=O)N[C@@H](Cc1c[nH]c2ccccc12)C(=O)N[C@@H](C(=O)N[C@@H](Cc1c[nH]c2ccccc12)C(=O)N[C@@H](C(=O)N[C@@H](Cc1c[nH]c2ccccc12)C(=O)N[C@@H](C(=O)N[C@@H](Cc1c[nH]c2ccccc12)C(=O)NCCO)C(C)C)C(C)C)C(C)C)[C@H](C)O)C(C)C)C(C)C [compound 12429] (For-VGA[dL]A[dV]V[dT]W[dV]W[dV]W[dV]W-NHCH2CH2OH)	100.0%	-	1.03
CC(C)C[C@@H](NC(=O)[C@H](C)NC(=O)CNC(=O)[C@@H](NC=O)C(C)C)C(=O)N[C@@H](C)C(=O)N[C@H](CC(C)C)C(=O)N[C@H](C(=O)N[C@@H](C(=O)N[C@@H](Cc1c[nH]c2ccccc12)C(=O)N[C@@H](C(=O)N[C@@H](Cc1c[nH]c2ccccc12)C(=O)N[C@@H](C(=O)N[C@@H](Cc1c[nH]c2ccccc12)C(=O)N[C@H](CC(C)C)C(=O)N[C@@H](Cc1c[nH]c2ccccc12)C(=O)NCCO)C(C)C)C(C)C)C(C)C)C(C)C [compound 12040] (For-VGA[dL]A[dL]V[dV]W[dV]W[dV]W[dL]W-NHCH2CH2OH)	100.0%	+	1.07
CC(C)C[C@@H](NC(=O)[C@H](Cc1c[nH]c2ccccc12)NC(=O)[C@H](NC(=O)[C@H](Cc1c[nH]c2ccccc12)NC(=O)[C@H](NC(=O)[C@H](Cc1c[nH]c2ccccc12)NC(=O)[C@H](NC(=O)[C@@H](NC(=O)[C@H](NC(=O)[C@H](C)NC(=O)[C@H](NC(=O)[C@H](C)NC(=O)CNC(=O)[C@@H](NC=O)C(C)C)C(C)C)C(C)C)C(C)C)C(C)C)C(C)C)C(C)C)C(=O)N[C@@H](Cc1c[nH]c2ccccc12)C(=O)NCCO [compound 12606] (For-VGA[dV]A[dV]V[dV]W[dV]W[dV]W[dL]W-NHCH2CH2OH)	100.0%	-	1.05
CC(C)C[C@@H](NC(=O)[C@H](C)NC(=O)CNC(=O)[C@@H](NC=O)C(C)C)C(=O)N[C@@H](C)C(=O)N[C@@H](C(=O)N[C@H](C(=O)N[C@@H](C(=O)N[C@@H](Cc1c[nH]c2ccccc12)C(=O)N[C@H](CC(C)C)C(=O)N[C@@H](Cc1c[nH]c2ccccc12)C(=O)N[C@H](CC(C)C)C(=O)N[C@@H](Cc1c[nH]c2ccccc12)C(=O)N[C@H](CC(C)C)C(=O)N[C@@H](Cc1c[nH]c2ccccc12)C(=O)NCCO)C(C)C)C(C)C)C(C)C [compound 4495] (For-VGA[dL]A[dV]V[dV]W[dL]W[dL]W[dL]W-NHCH2CH2OH)	3.5%	++	1.26
CC(C)C[C@@H](NC(=O)[C@H](Cc1c[nH]c2ccccc12)NC(=O)[C@@H](CC(C)C)NC(=O)[C@@H](NC(=O)[C@H](NC(=O)[C@H](C)NC(=O)[C@H](NC(=O)[C@H](C)NC(=O)CNC(=O)[C@@H](NC=O)C(C)C)C(C)C)C(C)C)C(C)C)C(=O)N[C@@H](Cc1c[nH]c2ccccc12)C(=O)N[C@@H](C(=O)N[C@@H](Cc1c[nH]c2ccccc12)C(=O)N[C@@H](C(=O)N[C@@H](Cc1c[nH]c2ccccc12)C(=O)NCCO)C(C)C)C(C)C [compound 8969] (For-VGA[dV]A[dV]V[dL]W[dL]W[dV]W[dV]W-NHCH2CH2OH)	8.7%	-	1.09
CNC(=O)C[C@@H](NC(=O)[C@H](Cc1c[nH]c2ccccc12)NC(=O)[C@H](NC(=O)[C@H](Cc1c[nH]c2ccccc12)NC(=O)[C@@H](CC(C)C)NC(=O)[C@H](Cc1c[nH]c2ccccc12)NC(=O)[C@@H](CC(C)C)NC(=O)[C@@H](NC(=O)[C@@H](CC(C)C)NC(=O)[C@H](C)NC(=O)[C@@H](CC(C)C)NC(=O)[C@H](C)NC(=O)CNC(=O)[C@@H](NC=O)C(C)C)C(C)C)C(C)C)C(=O)N[C@@H](Cc1c[nH]c2ccccc12)C(=O)NCCO [compound 3911] (For-VGA[dL]A[dL]V[dL]W[dL]W[dV]W[dD](NHMe)W-NHCH2CH2OH)	100.0%	-	1.00
CC(C)C[C@@H](NC(=O)[C@H](C)NC(=O)CNC(=O)[C@@H](NC=O)C(C)C)C(=O)N[C@@H](C)C(=O)N[C@H](CC(C)C)C(=O)N[C@H](C(=O)N[C@@H](C(=O)N[C@@H](Cc1c[nH]c2ccccc12)C(=O)N[C@@H](C(=O)N[C@@H](Cc1c[nH]c2ccccc12)C(=O)N[C@@H](C(=O)N[C@@H](Cc1c[nH]c2ccccc12)C(=O)N[C@H](CC(C)C)C(=O)N[C@@H](Cc1c[nH]c2ccccc12)C(=O)NCCO)[C@H](C)O)C(C)C)C(C)C)C(C)C [compound 8498] (For-VGA[dL]A[dL]V[dV]W[dV]W[dT]W[dL]W-NHCH2CH2OH)	52.6%	-	1.01
